Source: the NIST ThermoML archive (doi:10.1021/je5000605)
Numbers after ± are expanded uncertainties.

Conditions: 293.15 K; 101.33 kPa; Crystal; Pycnometric method

Compound: C=CC1=C(C(=O)O)N2C(=O)[C@@H](NC(=O)/C(=N\OCC(=O)O)c3csc(N)n3)[C@H]2SC1.O.O.O [cefixime trihydrate]
- molar volume: 0.0004982 ± 1e-05 m3/mol
